What was measured:
[1] = target: T1, CDK2/Cyclin E2 (Homo sapiens, UniProt P24941); test: CDK2/CyclinE2 Enzymatic Activity Assay (TR-FRET); format: biochemical; conditions: ATP 1 mM final, read-out: CDK2_E1 IC50
T1 construct: Recombinant protein complex CDK2/Cyclin E2, expressed from insect cell, was purchased from ProQinase
Description: CDK2/CyclinE2 Enzymatic Activity Assay
The inhibitory activity of compounds was evaluated in vitro using TR-FRET assay with white 384-well low volume microplate (Greiner Bio-One). CDK2/Cyclin E2 catalyzed phosphorylation of peptide in the presence and absence of compounds was measured and used in IC50 determination. Recombinant protein complex CDK2/Cyclin E2, expressed from insect cell, was purchased from ProQinase. Testing compounds were dissolved in DMSO at 1 mM and tested in 9-dose IC50 mode. The reaction mixture was prepared by mixing CDK2/CyclinE2 (1 nM final), ULight-4E-BP1 (50 nM final, Perkinelmer, TRF0128-D), and ATP (1 mM final) in assay buffer (20 mM of HEPES pH 7.4, 1 mM of EGTA, 0.05% BSA, 0.005% Tween 20, and 1 mM TCEP). The compound of interest in DMSO was added to each well in 3-fold serial dilution by dispenser (TECAN D300E) to make a 9.9 μL of reaction mixture. After 20 minutes preincubation at room temperature, 0.1 μL MgCl2 (10 mM final) was added to initiate the reaction. Following a 45 minute incubation at 37° C., the reaction was stopped by addition of 2 μL of quenching buffer consisting of Lance detection buffer (Perkinelmer CR97-100C), LANCE Ultra Europium-anti-P-4E-BP1 (Perkinelmer, TRF0216-D), EDTA, and incubated at room temperature for additional 60 minutes in the dark. The reaction signal was measured by Envision multimode plate reader (PerkinElmer, 2102-0010). IC50 values were determined by fitting the data to the standard 4 parameters with Hill Slope using GraphPad Prism software.

[2] = target: T2, CDK4/Cyclin D1 (Homo sapiens, UniProt P11802); test: CDK4/CyclinD1 Enzymatic Activity Assay (TR-FRET); format: biochemical; conditions: ATP 2 mM final, read-out: CDK4_D1 IC50
T2 construct: purchased ProQinase; host or cells: insect cell
Description: CDK4/CyclinD1 Enzymatic Activity Assay
The inhibitory activity of compounds was evaluated in vitro using TR-FRET assay with white 384-well low volume microplate (Greiner Bio-One). CDK4/Cyclin D1 catalyzed phosphorylation of peptide in the presence and absence of compounds was measured and used in IC50 determination. Recombinant protein complex CDK4/Cyclin D1, expressed from insect cell, was purchased from ProQinase. Testing compounds were dissolved in DMSO at 1 mM and tested in 9-dose IC50 mode. The reaction mixture was prepared by mixing CDK4/CyclinD1 (1 nM final), ULight-4E-BP1 (100 nM final, Perkinelmer, TRF0128-D), and ATP (2 mM final) in assay buffer (20 mM of HEPES pH 7.4, 1 mM of EGTA, 0.05% BSA, 0.005% Tween 20, and 1 mM TCEP). The compound of interest in DMSO was added to each well in 3-fold serial dilution by the dispenser (TECAN D300E) to make a 9.9 μL of reaction mixture. After 20 minutes preincubation at room temperature, 0.1 μL MgCl2 (10 mM final) was added to initiate the reaction. Following a 45-minute incubation at 37° C., the reaction was stopped by addition of 2 μL of quenching buffer consisting of Lance detection buffer (Perkinelmer CR97-100C), LANCE Ultra Europium-anti-P-4E-BP1 (Perkinelmer, TRF0216-D), EDTA, and incubated at room temperature for additional 60 minutes in dark. The reaction signal was measured by Envision multimode plate reader (PerkinElmer, 2102-0010). IC50 values were determined by fitting the data to the standard 4 parameters with Hill Slope using GraphPad Prism software.

[3] = system: OVCAR3 p-RB; test: pRB ICW Assay in OVCAR3 Cells; format: cell-based; conditions: Homo sapiens, OVCAR-3, incubated with compound for 2 hours
Description: pRB ICW Assay in OVCAR3 Cells
OVCAR3 cells were maintained in RPMI (Corning, Catalog #: 10-040-CV) supplemented with 10% v/v FBS (Gibco, Catalog #: 26140-079), 1% v/v Penicillin Streptomycin (Gibco, Catalog #15140-122.) OVCAR3 cells grown at log phase were trypsinized, counted, and resuspended in fresh medium to reach a final density of 6.7e4 cells/mL and 75 μL of culture were dispensed into a 384-well plate (Falcon, cat #353962) using a Multidrop Combi dispenser (Thermo Scientific). The next day, compounds were dispensed as a 9-point, ½ log serial dilution using a Tecan digital dispenser (D300e), and cells were incubated with compound for 2 hours in a humidified incubator at 37° C. A reference compound at a final concentration of 10 μM was used as a control for maximum inhibition. Each compound was tested in duplicate for each experiment. At the end of the incubation, […] (Electron Microscopy, cat #15710) was slowly added to each well and the plate was incubated at room temperature (RT) for 30 minutes to fix cells. Cells were then permeabilized by incubating with 50 μL/well of wash buffer (1×PBS with 0.1% Triton X-100) 5×5 minutes, followed by 1 hour blocking with 30 μL/well of Odyssey blocking buffer (Li-COR, cat #927-40000), at RT. Anti-phosphor RB antibody (Cell signaling 8516S) was diluted 1:1000 in Odyssey blocking buffer and 20 μL was added to all wells and incubated overnight in 4° C. with gently rocking. The next day, cells were washed 5×5 min with 50 μL/well of wash buffer, followed with 1 hour incubation with secondary antibody and DRAQ5 diluted in Odyssey blocking buffer (1:500 dilution for secondary antibody and 1:2000 dilution for DRAQ5), 5×5 min washes, and one last wash with water. Plates were dried in 37° C. oven for 5 minutes and scanned using Li-COR Odyssey CLx imaging system to acquire intensities at 700 and 800 nm channels.

T2 sequence (P11802 whole entry): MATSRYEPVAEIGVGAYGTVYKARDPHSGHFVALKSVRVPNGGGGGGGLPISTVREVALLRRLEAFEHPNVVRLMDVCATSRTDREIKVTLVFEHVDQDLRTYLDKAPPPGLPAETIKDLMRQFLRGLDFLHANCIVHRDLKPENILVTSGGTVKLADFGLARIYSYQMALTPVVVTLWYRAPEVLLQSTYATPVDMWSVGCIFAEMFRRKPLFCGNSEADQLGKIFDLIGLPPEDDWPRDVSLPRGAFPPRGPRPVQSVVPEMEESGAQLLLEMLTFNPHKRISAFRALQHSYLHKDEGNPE
T2 sequence (P24385 whole entry partner): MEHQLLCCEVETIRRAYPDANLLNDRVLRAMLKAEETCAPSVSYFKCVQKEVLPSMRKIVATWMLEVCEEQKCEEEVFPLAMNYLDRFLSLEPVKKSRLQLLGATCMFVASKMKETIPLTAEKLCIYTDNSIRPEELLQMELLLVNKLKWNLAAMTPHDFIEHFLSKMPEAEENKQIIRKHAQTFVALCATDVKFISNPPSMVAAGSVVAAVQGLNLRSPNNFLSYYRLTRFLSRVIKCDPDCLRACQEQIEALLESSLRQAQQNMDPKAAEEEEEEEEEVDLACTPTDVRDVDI

Structure (SMILES) | IC50 [1] [nM] | IC50 [2] [nM] | IC50 [3] [nM]
Cc1sc(-c2nc(NC3CCN(S(=O)(=O)c4cn(C)cn4)CC3)ncc2C(F)(F)F)cc1C#N [Example 1, 2-Methyl-5-[2-[[1-(1-methylimidazol-4-yl)sulfonylpiperidin-4-yl]amino]-5-(trifluoromethyl)pyrimidin-4-yl]thiophene-3-carbonitrile] | ≤ 100 | ≤ 100 | ≤ 100
Cc1cnc(-c2nc(NC3CCN(S(=O)(=O)c4cnn(C)c4)CC3)ncc2C(F)(F)F)s1 [Example 2, N-(1-((1-methyl-1H-pyrazol-4-yl)sulfonyl)piperidin-4-yl)-4-(5-methylthiazol-2-yl)-5-(trifluoromethyl)pyrimidin-2-amine] | ≤ 100 | ≤ 100 | ≤ 100
C[C@@H]1CN(S(=O)(=O)N2CCOCC2)CC[C@@H]1Nc1ncc(C(F)(F)F)c(-c2ncc(CC(C)(C)O)s2)n1 [Example 147, 2-methyl-1-(2-(2-(((3R,4S)-3-methyl-1-(morpholinosulfonyl)piperidin-4-yl)amino)-5-(trifluoromethyl)pyrimidin-4-yl)thiazol-5-yl)propan-2-ol] | ≤ 100 | – | > 500
C[C@@H]1CN(S(=O)(=O)N2CCN(C)CC2)CC[C@@H]1Nc1ncc(C(F)(F)F)c(-c2ncc(CC(C)(C)O)s2)n1 [Example 148, 2-methyl-1-(2-(2-(((3R,4S)-3-methyl-1-((4-methylpiperazin-1-yl)sulfonyl)piperidin-4-yl)amino)-5-(trifluoromethyl)pyrimidin-4-yl)thiazol-5-yl)propan-2-ol] | ≤ 100 | – | > 500
C[C@@H]1CN(S(=O)(=O)N(C)C)CC[C@@H]1Nc1ncc(C(F)(F)F)c(-c2ncc(CC(C)(C)O)s2)n1 [Example 149, (3R,4S)-4-((4-(5-(2-hydroxy-2-methylpropyl)thiazol-2-yl)-5-(trifluoromethyl)pyrimidin-2-yl)amino)-N,N,3-trimethylpiperidine-1-sulfonamide] | ≤ 100 | – | > 500
C[C@@H]1CN(S(C)(=O)=O)CC[C@@H]1Nc1ncc(C(F)(F)F)c(-c2ncc(C3(O)CC3)s2)n1 [Example 151, 1-(2-(2-(((3R,4S)-3-methyl-1-(methylsulfonyl)piperidin-4-yl)amino)-5-(trifluoromethyl)pyrimidin-4-yl)thiazol-5-yl)cyclopropan-1-ol] | ≤ 100 | – | > 500
CC(C)(O)Cc1cnc(-c2nc(N[C@H]3CCN(S(C)(=O)=O)C[C@H]3F)ncc2Cl)s1 [Example 152, 1-(2-(5-chloro-2-(((3R,4S)-3-fluoro-1-(methylsulfonyl)piperidin-4-yl)amino)pyrimidin-4-yl)thiazol-5-yl)-2-methylpropan-2-ol] | ≤ 100 | – | 100 to 500
CC(C)(O)Cc1cnc(-c2nc(N[C@H]3CCN(S(C)(=O)=O)C[C@H]3F)ncc2C#N)s1 [Example 153, 2-(((3R,4S)-3-fluoro-1-(methylsulfonyl)piperidin-4-yl)amino)-4-(5-(2-hydroxy-2-methylpropyl)thiazol-2-yl)pyrimidine-5-carbonitrile] | ≤ 100 | – | > 500
CC(C)(O)Cc1cnc(-c2nc(N[C@H]3CCN(S(C)(=O)=O)C[C@H]3F)ncc2C(F)F)s1 [Example 154, 1-(2-(5-(difluoromethyl)-2-(((3R,4S)-3-fluoro-1-(methylsulfonyl)piperidin-4-yl)amino)pyrimidin-4-yl)thiazol-5-yl)-2-methylpropan-2-ol] | ≤ 100 | – | > 500

Second part, the compound after the results:

IC50 [1] [nM] | IC50 [2] [nM] | IC50 [3] [nM] | Structure (SMILES)
≤ 100 | – | > 500 | C[C@@H]1CN(S(C)(=O)=O)CC[C@@H]1Nc1ncc(C(F)(F)F)c(-c2ncc(C(O)C(F)(F)F)s2)n1 (stereo partly drawn) [Example 140, 2,2,2-trifluoro-1-(2-(2-(((3R,4S)-3-methyl-1-(methylsulfonyl)piperidin-4-yl)amino)-5-(trifluoromethyl)pyrimidin-4-yl)thiazol-5-yl)ethan-1-ol]
≤ 100 | – | 100 to 500 | C[C@@H]1CN(S(=O)(=O)c2cnn(C)c2)CC[C@@H]1Nc1ncc(C(F)(F)F)c(-c2ncc(C(O)C(F)(F)F)s2)n1 (stereo partly drawn) [Example 141, 2,2,2-trifluoro-1-(2-(2-(((3R,4S)-3-methyl-1-((1-methyl-1H-pyrazol-4-yl)sulfonyl)piperidin-4-yl)amino)-5-(trifluoromethyl)pyrimidin-4-yl)thiazol-5-yl)ethan-1-ol]
≤ 100 | – | ≤ 100 | C[C@@H]1CN(S(=O)(=O)c2cnn(C)c2)CC[C@@H]1Nc1ncc(C(F)(F)F)c(-c2ncc(C(C)(O)C(F)F)s2)n1 (stereo partly drawn) [Example 143, 1,1-difluoro-2-(2-(2-(((3R,4S)-3-methyl-1-((1-methyl-1H-pyrazol-4-yl)sulfonyl)piperidin-4-yl)amino)-5-(trifluoromethyl)pyrimidin-4-yl)thiazol-5-yl)propan-2-ol]
≤ 100 | – | 100 to 500 | C[C@@H]1CN(S(=O)(=O)c2cnn(C)c2)CC[C@@H]1Nc1ncc(C(F)(F)F)c(-c2ncc(C(O)CF)s2)n1 (stereo partly drawn) [Example 144, 2-fluoro-1-(2-(2-(((3R,4S)-3-methyl-1-((1-methyl-1H-pyrazol-4-yl)sulfonyl)piperidin-4-yl)amino)-5-(trifluoromethyl)pyrimidin-4-yl)thiazol-5-yl)ethan-1-ol]
≤ 100 | – | > 500 | C[C@@H]1CN(S(C)(=O)=O)CC[C@@H]1Nc1ncc(C(F)(F)F)c(-c2ncc(C(O)CF)s2)n1 (stereo partly drawn) [Example 145, 2-fluoro-1-(2-(2-(((3R,4S)-3-methyl-1-(methylsulfonyl)piperidin-4-yl)amino)-5-(trifluoromethyl)pyrimidin-4-yl)thiazol-5-yl)ethan-1-ol]
≤ 100 | – | 100 to 500 | C[C@@H]1CN(S(C)(=O)=O)CC[C@@H]1Nc1ncc(C(F)(F)F)c(-c2ncc(C(O)C(F)F)s2)n1 (stereo partly drawn) [Example 146, 2,2-difluoro-1-(2-(2-(((3R,4S)-3-methyl-1-(methylsulfonyl)piperidin-4-yl)amino)-5-(trifluoromethyl)pyrimidin-4-yl)thiazol-5-yl)ethan-1-ol]
≤ 100 | – | 100 to 500 | C[C@@H]1CN(S(=O)(=O)c2cnn(C)c2)CC[C@@H]1Nc1ncc(C(F)(F)F)c(-c2ncc(C3(O)CC3)s2)n1 [Example 150, 1-(2-(2-(((3R,4S)-3-methyl-1-((1-methyl-1H-pyrazol-4-yl)sulfonyl)piperidin-4-yl)amino)-5-(trifluoromethyl)pyrimidin-4-yl)thiazol-5-yl)cyclopropan-1-ol]

From patent publication US20240150340A1, “CDK Inhibitors And Their Use As Pharmaceuticals” (Prelude Therapeutics Incorporated, priority 2022, published 2024)
